Source: US9346829B2, “5-HT3 receptor antagonists” (Takeda Phamaceutical Company Limited, priority 2012, dated 2016)
Where a name gives a salt, the structure may show the parent alone. Read-outs that look alike come from different tables or passages of the source.

How the values were obtained:
[1] = biological target: nicotinic α-7 receptor (Homo sapiens (Human), UniProt P36544); test: Nicotinic α-7 receptor binding assay; details: binding at the nicotinic α-7 receptor, carried out at Eurofins Pharma Services
Method: The evaluation of binding at the nicotinic α-7 receptor was carried out at Eurofins Pharma Services.

[2] = biological target: 5-HT3a receptor (Homo sapiens (Human), UniProt P46098); test: Inhibition of Ca flux activity of 5-HT3 in vitro assay; type: cell-based
Method: The 5-HT3 antagonist activity of the compounds of the invention was determined by measuring the ability of the compounds to inhibit the calcium flux activity of […] receptor expressed in HEK-293T cells. HEK-293T cells were transfected with the 5-HT3a expression construct using Xtreme Gene 9 (Roche) in 150 mm tissue culture treated plates and incubated for 24 hours at 37° C. Cells were then split and plated at a density of 60K cells/well in poly-lysine coated, black 96-well plates with clear bottoms (BD BioSciences) and incubated overnight at 37° C. Growth media was removed and cells loaded with 200 uL calcium indicator dye in HBSS containing 20 mM HEPES (Calcium 5 Assay kit, Molecular Devices) and incubated at 37° C. for 1 hour. While cells were incubating, the 10× antagonist and agonist/antagonist addition plates were made. For 10× antagonist plate: half log serial dilutions (final concentrations range from 10^−7 through 10^−10 with the bottom well a negative, no ligand control) were made from test compounds in DMSO at a 1000× concentration and then diluted to 10× in HBSS/20 mM HEPES. For addition plate: 5HT was diluted to 100× in HBSS/20 mM HEPES (final concentration in the assay—216 nM) and 15 uL was added to each well of the addition plate, 15 uL of 10× compound was also added to the addition plate, and finally 120 uL of HBSS/20 mM HEPES (for a total of 150 uL). Cells were then removed from the incubator and equilibrated to room temperature for 10 minutes, then 22.5 uL of 10× test compounds were added in triplicate to the plates and incubated at room temperature for 10 minutes (Tropisetron was used as a positive control in every assay). Test plate and addition plate were loaded into the FlexStation III (Molecular Devices), and using the fluidics, 22.5 uL compound additions were made (at t=˜17 seconds), and fluorescence was measured for 90 seconds, reading every 2.2 seconds. Data sets were analyzed as max minus min using Software Max Pro (Molecular Devices). IC50 curves were generated using non-linear regression in GraphPad Prism.

Sequence of 5-HT3a receptor (P46098 24-478): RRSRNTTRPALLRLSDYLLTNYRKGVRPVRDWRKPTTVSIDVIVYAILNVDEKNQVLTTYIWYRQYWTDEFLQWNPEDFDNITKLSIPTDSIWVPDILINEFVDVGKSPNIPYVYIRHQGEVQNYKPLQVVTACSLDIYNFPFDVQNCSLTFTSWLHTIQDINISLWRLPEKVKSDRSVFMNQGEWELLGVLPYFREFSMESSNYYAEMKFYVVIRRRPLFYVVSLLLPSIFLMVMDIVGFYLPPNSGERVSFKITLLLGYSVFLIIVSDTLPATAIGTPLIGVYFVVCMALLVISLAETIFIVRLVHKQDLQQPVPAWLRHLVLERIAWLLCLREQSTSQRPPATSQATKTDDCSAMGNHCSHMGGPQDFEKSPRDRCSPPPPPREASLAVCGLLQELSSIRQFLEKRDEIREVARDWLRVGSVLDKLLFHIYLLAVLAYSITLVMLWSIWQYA
Sequence of nicotinic α-7 receptor (P36544 23-502): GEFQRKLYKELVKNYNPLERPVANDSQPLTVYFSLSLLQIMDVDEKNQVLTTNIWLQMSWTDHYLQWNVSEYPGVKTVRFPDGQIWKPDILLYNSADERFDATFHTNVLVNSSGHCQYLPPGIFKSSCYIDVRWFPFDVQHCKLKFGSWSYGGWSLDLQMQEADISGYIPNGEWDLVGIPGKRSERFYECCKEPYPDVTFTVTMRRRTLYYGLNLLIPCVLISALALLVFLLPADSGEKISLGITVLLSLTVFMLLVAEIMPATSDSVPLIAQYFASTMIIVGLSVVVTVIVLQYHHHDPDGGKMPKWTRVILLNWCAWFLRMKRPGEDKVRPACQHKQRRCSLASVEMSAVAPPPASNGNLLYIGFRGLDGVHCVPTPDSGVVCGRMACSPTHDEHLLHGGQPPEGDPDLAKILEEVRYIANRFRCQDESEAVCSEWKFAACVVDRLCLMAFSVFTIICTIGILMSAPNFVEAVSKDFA

SMILES: CN1[C@@H]2COC[C@H]1C[C@@H](NC(=O)c1cn(-c3cnn(C)c3)c3ccccc13)C2 [Compound 15, 1-(1-methyl-1H-pyrazol-4-yl)-N-((1R,5S,7S)-9-methyl-3-oxa-9-azabicyclo[3.3.1]nonan-7-yl)-1H-indole-3-carboxamide, 2,2,2-trifluoroacetic acid salt]
- IC50 [1]: > 10 µM
- IC50 [2]: 3.48 nM
- IC50 ([2]; approximate IC50, calcium flux, 5-HT3a expressed in HEK-293T cells, 5HT 216 nM, read-out: IC50): 0.662 nM
